Patent publication US20140018372A1, “CRYSTALLINE FORM OF A INDOLINONE DERIVATIVE AND ITS USE” (BOEHRINGER INGELHEIM INTERNATIONAL GMBH, priority 2012, published 2014)
“Also recorded” adds a separate entry of the source.

Legend:
[1] = system: phospho-histone H3 in NCI-H460 cells; assay: Analysis of histone H3 phosphorylation in NCI-H460 cells (Cellomics); assay type: cell-based; settings: Homo sapiens, synchronized H460 NSCLC cells, 1 h treatment, molecular phosphorylation assay, read-out: EC50 for reduction of phospho-histone H3
Excerpt: This CDK1 inhibitor arrests cells in G2. […] The final DMSO concentration was 0.1%.

[2] = system: phospho-ERK in SK-MEL-28 cells; assay: Fast Active Cell-Based ELISA (FACE) SK-MEL-28 p-ERK; settings: Homo sapiens, SK-MEL 28 melanoma cells, read-out: EC50 for reduction of phospho-ERK
Excerpt: Fast Active Cell-Based ELISA (FACE) SK-MEL-28 p-ERK:
The supernatant is removed.

H460 cells = assay: Polyploidy by DNA content analyses (Cellomics ArrayScan); assay type: cell-based, human; settings: 7 nM, 42 h exposure
[3] = system: tumors derived from melanoma cell line G361^V600V/E; assay: Human melanoma xenograft G361 in nude mice; assay type: in vivo; settings: oral qd, Compound A 10 mg/kg, vemurafenib 120 mg/kg; for TGI@d23 [%]: day 23; for CR@d30 [x/7] / PR@d30 [x/7]: day 30
Experimental: Athymic female BomTac:NMRI-Foxn1^nu mice about six weeks of age are allowed to adjust to ambient conditions for at least five days before they are used for experiments. The animals are housed under standardized conditions in groups of 7-10 in Macrolon® type III cages. Standardized diet (PROVIMI KLIBA) and autoclaved tap water are provided ad libitum. To establish subcutaneous tumors, cells are harvested by trypsinization, centrifuged, washed and resuspended in ice-cold PBS+5% FCS. 100 μL of cell suspension containing, depending on cell type, about 10^6 to 10^7 cells are injected subcutaneously into the right flank of a nude mouse (one site per mouse). Mice are randomly distributed between the treatment and the vehicle control group (12 days after cell injection) when tumors are well established and have reached volumes of 40-120 mm^3
The tumor diameter is measured three times a week (Monday, Wednesday and Friday) with a caliper. The volume of each tumor (in mm^3) is calculated according to the formula “tumor volume=length×diameter^2×π/6”. To monitor side effects of treatment, mice are inspected daily for abnormalities and body weight is determined three times a week (e.g. Monday, Wednesday and Friday). Animals are sacrificed at the end of the study about ten weeks after start of treatment. Animals with necrotic tumors or tumor sizes exceeding 1500 mm^3 are sacrificed early during the studies for ethical reasons.
For a quick overview of possible treatment effects the median of the tumor volume of each treatment group T is related to the median of the tumor volume of control C. Tumor growth inhibition (TGI) from day 1 until day d is calculated as: […]
wherein • C1 and T1 represent the median tumor volumes in the control and treatment groups at start of the experiment at day 1 and • Cd and Td represent the median tumor volumes in the control and treatment groups at end of the experiment at day d.
Mice with tumors derived from melanoma cell line G361^V600V/E are treated orally with the B-Raf inhibitor vemurafenib qd at doses of 120 mg/kg or with 3-{3-[1-(4-Dimethylaminomethyl-phenylamino)-1-phenyl-meth-(Z)-ylidene]-2-oxo-2,3-dihydro-1H-indol-6-yl}-propynoic acid ethylamide (Compound A) qd at doses of 10 mg/kg or with the vehicle only. In addition, mice are treated orally with B-Raf inhibitor vemurafenib qd at doses of 120 mg/kg in combination with Compound A qd at doses of 10 mg/kg.

Solution state stability = assay type: physicochemical
Experimental: In solution state, the compound of formula (I) according to the invention show no or only minor sensitivity towards hydrolysis at pH 2.2-10 (solution state stability, e.g. 0.1M HCl, 8 h @ 37° C.: <1% decomposition; Mc Ilvaine buffer 7.4, 3d @ 60° C.: <1,5% decomposition).

[4] = Water sorption isotherms (DVS); assay type: physicochemical; settings: sorption isotherms at 25° C.
Experimental: To study the hygroscopical behaviour of this material, sorption isotherms are registered, e.g. on a DVS-1 water sorption monitor from Surface Measurement Systems. Adsorption and desorption isotherms are performed at 25° C. with 10% r.h. step intervals ranging from 10% r.h. up to 90% r.h.

[5] = Solid state chemical stability; assay type: physicochemical
Experimental: The crystalline free base form of 3-{3-[1-(4-Dimethylaminomethyl-phenylamino)-1-phenyl-meth-(Z)-ylidene]-2-oxo-2,3-dihydro-1H-indol-6-yl}-propynoic acid ethylamide according to this invention has further added properties, such as e.g. no sensitivity towards heat, humidity and photolysis in solid state (solid state chemical stability, e.g. 3d @ 70° C. and >90% r.h.: <1% decomposition; 3d @ 105° C.: <1.5% decomposition; 24 h under UV-radiation @ 250 W/m^2: <1.5% decomposition).

| SMILES | EC50 [1] [µM] | EC50 [2] [µM] | polyploid cells (H460 cells) [%] | mortality [x/7] [3] [x/7] | TGI@d23 [%] [3] [%] | CR@d30 [x/7] [3] [x/7] | PR@d30 [x/7] [3] [x/7] | decomposition, solution state (Solution state stability; 0.1M HCl, 8 h @ 37° C.) [%] | decomposition, solution state (Solution state stability; Mc Ilvaine buffer 7.4, 3d @ 60° C.) | hygroscopical behaviour [4] | decomposition, solid state ([5]; 24 h under UV-radiation @ 250 W/m^2) [%] | decomposition, solid state ([5]; 3d @ 70° C. and >90% r.h.) [%] | decomposition, solid state ([5]; 3d @ 105° C.) [%] |
| --- | --- | --- | --- | --- | --- | --- | --- | --- | --- | --- | --- | --- | --- |
| CCNC(=O)C#Cc1ccc2c(c1)NC(=O)/C2=C(\Nc1ccc(CN(C)C)cc1)c1ccccc1 [Compound A, 3-{3-[1-(4-Dimethylaminomethyl-phenylamino)-1-phenyl-meth-(Z)-ylidene]-2-oxo-2,3-dihydro-1H-indol-6-yl}-propynoic acid ethylamide] | 0.044 | 0.059 | 81 | 1 | 45 | 0 | 0 | < 1 | < 1,5% | – | – | – | – |
| CCCS(=O)(=O)Nc1ccc(F)c(C(=O)c2c[nH]c3ncc(-c4ccc(Cl)cc4)cc23)c1F [vemurafenib, reference compound] | – | – | – | 0 | 44 | 0 | 0 | – | – | – | – | – | – |
| CCNC(=O)C#Cc1ccc2c(c1)NC(=O)/C2=C(\Nc1ccc(CN(C)C)cc1)c1ccccc1 [3-{3-[1-(4-Dimethylaminomethyl-phenylamino)-1-phenyl-meth-(Z)-ylidene]-2-oxo-2,3-dihydro-1H-indol-6-yl}-propynoic acid ethylamide] | – | – | – | – | – | – | – | – | – | not hygroscopic; also recorded: non-hygroscopic | < 1.5 | < 1 | < 1.5 |
